In PubChem BioAssay (NCI):
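1) Cells in 96-well plates. 2) Compound, 48 h, 5 concentrations. 3) Linear interpolation between surrounding doses. 4) Unreached endpoint = highest concentration. Abbreviation: GI50, concentration required for 50% inhibition of growth. At the TGI there is no net growth.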

Tests used:
Assay in all cases: NCI-60 cell line screen, 48 h
CCRF-CEM leukemia = test system: CCRF-CEM leukemia
SNB-19 CNS = test system: SNB-19 CNS
MDA-MB-231 breast = test system: MDA-MB-231 breast
NCI-H23 lung = test system: NCI-H23 lung
HOP-62 NSCLC = test system: HOP-62 NSCLC
MCF7 breast = test system: MCF7 breast
TK-10 renal = test system: TK-10 renal
OVCAR-3 ovarian = test system: OVCAR-3 ovarian
PC-3 prostate = test system: PC-3 prostate
KM12 colon = test system: KM12 colon

Row | SMILES | TGI (CCRF-CEM leukemia) | TGI (SNB-19 CNS) | TGI (MDA-MB-231 breast) | TGI (NCI-H23 lung) | TGI (HOP-62 NSCLC) | TGI (MCF7 breast) | TGI (TK-10 renal) | TGI (OVCAR-3 ovarian) | TGI (PC-3 prostate) | TGI (KM12 colon) | GI50 (CCRF-CEM leukemia) | GI50 (SNB-19 CNS) | GI50 (MDA-MB-231 breast) | GI50 (NCI-H23 lung) | GI50 (HOP-62 NSCLC) | GI50 (MCF7 breast) | GI50 (TK-10 renal) | GI50 (OVCAR-3 ovarian) | GI50 (PC-3 prostate) | GI50 (KM12 colon)
1 | Cc1ccc(-c2nc3ccc([N+](=O)[O-])cc3[nH]2)cc1 | > 100 µM | > 100 µM | > 100 µM | > 100 µM | > 100 µM | > 100 µM | > 100 µM | > 100 µM | > 100 µM | > 100 µM | – | – | – | – | – | – | – | – | – | –
2 | C=CCCCCCCCCCCC1(O)C=CC2=[N+](CCCCCN=C(N)N)CCCN21 (stereo not given) | 40.3 µM | 30.4 µM | 30.2 µM | 32.3 µM | 32 µM | 40.8 µM | 4.56 µM | 36.8 µM | 6.39 µM | 18.7 µM | 8.57 µM | 5.86 µM | 9.98 µM | 12.9 µM | 8.68 µM | 12.3 µM | 1.33 µM | 13 µM | 0.466 µM | 3.42 µM
3 | N#C/C=C(\c1ccc([N+](=O)[O-])cc1)n1nnc2cc(Cl)c(Cl)cc21 | 29.4 µM | 7.14 µM | 8.66 µM | 6.68 µM | 5.04 µM | 3.32 µM | 4.16 µM | 3.91 µM | 4 µM | 11.3 µM | 2.31 µM | 2.37 µM | 2.34 µM | 2.28 µM | 1.99 µM | 0.738 µM | 2.6 µM | 1.88 µM | 1.56 µM | 2.62 µM
4 | C[C@H]1Oc2cc(cnc2N)-c2c(nn(C)c2C#N)CN(C)C(=O)c2ccc(F)cc21 | > 100 µM | > 100 µM | > 100 µM | > 100 µM | > 100 µM | > 100 µM | > 100 µM | > 100 µM | > 100 µM | > 100 µM | > 100 µM | > 100 µM | 18.1 µM | 59.1 µM | 23 µM | 5.42 µM | 36.5 µM | > 89.3 µM | > 100 µM | 0.275 µM
5 | CC(=O)OC12c3ccccc3-c3ccccc3C1C1C(=O)N(C)C(=O)C12Cl (stereo not given) | > 10 µM | > 10 µM | > 10 µM | > 10 µM | > 10 µM | > 10 µM | > 10 µM | > 10 µM | > 10 µM | > 10 µM | – | – | – | – | – | – | – | – | – | –
6 | CC(C)=CCc1cc(O)cc2c1OC(C=C(C)C)C1=C2C(=O)C2=C(NCCS2(=O)=O)C1=O (stereo not given) | > 16.7 µM | 4.44 µM | 5.09 µM | 6.53 µM | 5.94 µM | 4.92 µM | 16.2 µM | 2.01 µM | > 16.7 µM | > 16.7 µM | 4.05 µM | 2.25 µM | 0.527 µM | 1.91 µM | 3.01 µM | 1.21 µM | 5.51 µM | 0.456 µM | 4.14 µM | 4.29 µM
7 | COc1ccccc1N1CCN(CCCn2c(=O)c3c(OC)nc(C)cc3c(=O)n2-c2ccccc2)CC1 | > 100 µM | > 100 µM | > 100 µM | > 100 µM | > 100 µM | > 100 µM | > 100 µM | > 100 µM | > 100 µM | > 100 µM | > 100 µM | > 100 µM | > 100 µM | > 100 µM | > 100 µM | > 100 µM | > 100 µM | > 100 µM | > 100 µM | > 100 µM
